Data published in PMC4457528, “Identification of Novel Small Molecule Inhibitors of Oncogenic RET Kinase” (PLoS ONE, 2015).
Where two headings read alike, the source gives them in different places.

What was measured:
Experiment in all cases: KinomeScan kinase panel, single concentration 10 µM
Type in all cases: binding
KinomeScan kinase panel [1] = target: T1, KinomeScan kinase panel (Homo sapiens, UniProt P08581); conditions: MET, 10 µM
T1 construct: purchased DiscoveRx (KinomeScan)

KinomeScan kinase panel [2] = target: T2, KinomeScan kinase panel (Homo sapiens, UniProt Q08881); conditions: ITK, 10 µM
T2 construct: purchased DiscoveRx (KinomeScan)
T2 sequence (Q08881 1-620): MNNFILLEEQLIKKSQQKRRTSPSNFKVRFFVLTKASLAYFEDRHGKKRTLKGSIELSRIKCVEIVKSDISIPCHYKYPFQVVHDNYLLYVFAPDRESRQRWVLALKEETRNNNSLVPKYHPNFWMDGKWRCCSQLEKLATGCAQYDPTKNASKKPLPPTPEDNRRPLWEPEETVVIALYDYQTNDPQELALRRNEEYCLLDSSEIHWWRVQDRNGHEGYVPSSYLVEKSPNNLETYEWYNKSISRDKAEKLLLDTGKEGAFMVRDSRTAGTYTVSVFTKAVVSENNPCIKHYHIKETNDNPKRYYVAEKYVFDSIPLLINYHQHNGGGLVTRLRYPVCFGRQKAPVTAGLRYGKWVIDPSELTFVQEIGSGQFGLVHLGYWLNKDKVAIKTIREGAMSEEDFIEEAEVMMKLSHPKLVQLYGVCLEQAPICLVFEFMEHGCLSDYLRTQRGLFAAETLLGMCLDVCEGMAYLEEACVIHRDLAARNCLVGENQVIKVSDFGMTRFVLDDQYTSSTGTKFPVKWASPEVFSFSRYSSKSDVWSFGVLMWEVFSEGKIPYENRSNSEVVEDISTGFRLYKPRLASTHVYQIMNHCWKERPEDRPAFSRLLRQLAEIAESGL

KinomeScan kinase panel [3] = target: T3, KinomeScan kinase panel (Homo sapiens, UniProt Q9BZL6); conditions: read-out: score (%)
T3 construct: purchased DiscoveRx (KinomeScan)
T3 sequence (Q9BZL6 1-878): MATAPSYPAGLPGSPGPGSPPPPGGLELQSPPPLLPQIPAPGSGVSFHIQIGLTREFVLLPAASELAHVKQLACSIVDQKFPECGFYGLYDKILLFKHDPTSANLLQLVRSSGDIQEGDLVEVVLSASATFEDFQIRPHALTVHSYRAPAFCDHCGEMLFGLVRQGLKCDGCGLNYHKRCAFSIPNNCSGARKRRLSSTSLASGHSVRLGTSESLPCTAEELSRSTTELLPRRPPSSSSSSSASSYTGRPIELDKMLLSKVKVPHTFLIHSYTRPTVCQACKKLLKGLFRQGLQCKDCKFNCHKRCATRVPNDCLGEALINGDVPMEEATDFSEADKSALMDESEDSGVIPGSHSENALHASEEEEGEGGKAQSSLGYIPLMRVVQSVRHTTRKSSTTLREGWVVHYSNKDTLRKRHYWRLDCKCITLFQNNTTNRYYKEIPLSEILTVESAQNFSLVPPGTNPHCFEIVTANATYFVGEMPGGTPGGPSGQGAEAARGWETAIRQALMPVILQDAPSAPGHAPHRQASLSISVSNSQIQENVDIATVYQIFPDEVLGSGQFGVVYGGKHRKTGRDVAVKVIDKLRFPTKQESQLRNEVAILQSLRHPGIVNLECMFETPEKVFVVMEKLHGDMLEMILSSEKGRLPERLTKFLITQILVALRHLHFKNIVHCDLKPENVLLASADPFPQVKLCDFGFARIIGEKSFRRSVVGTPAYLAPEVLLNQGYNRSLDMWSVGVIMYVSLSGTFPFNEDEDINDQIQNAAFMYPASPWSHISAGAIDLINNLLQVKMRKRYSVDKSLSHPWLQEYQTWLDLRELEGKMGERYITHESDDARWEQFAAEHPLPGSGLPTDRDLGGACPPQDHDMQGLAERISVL

KinomeScan kinase panel [4] = target: T4, KinomeScan kinase panel (Homo sapiens, UniProt Q86UX6); conditions: kinase YANK3; 10 µM; read-out: score (%)
T4 construct: purchased DiscoveRx (KinomeScan)
T4 sequence (Q86UX6 whole entry): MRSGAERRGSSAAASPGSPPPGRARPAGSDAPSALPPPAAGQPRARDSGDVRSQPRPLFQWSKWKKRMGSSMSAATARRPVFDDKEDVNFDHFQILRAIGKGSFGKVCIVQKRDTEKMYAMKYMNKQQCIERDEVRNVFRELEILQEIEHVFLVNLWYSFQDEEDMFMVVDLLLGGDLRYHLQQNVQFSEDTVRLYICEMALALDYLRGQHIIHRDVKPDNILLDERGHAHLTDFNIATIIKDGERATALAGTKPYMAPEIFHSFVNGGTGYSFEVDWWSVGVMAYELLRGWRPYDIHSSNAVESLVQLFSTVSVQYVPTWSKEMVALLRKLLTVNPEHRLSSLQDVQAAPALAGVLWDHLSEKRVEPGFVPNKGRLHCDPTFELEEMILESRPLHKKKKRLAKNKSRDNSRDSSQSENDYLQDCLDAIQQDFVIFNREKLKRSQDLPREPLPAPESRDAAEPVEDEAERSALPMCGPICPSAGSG

KinomeScan kinase panel [5] = target: T5, KinomeScan kinase panel (Homo sapiens, UniProt O14578); conditions: CIT, 10 µM
T5 construct: purchased DiscoveRx (KinomeScan)
T5 sequence (O14578 whole entry): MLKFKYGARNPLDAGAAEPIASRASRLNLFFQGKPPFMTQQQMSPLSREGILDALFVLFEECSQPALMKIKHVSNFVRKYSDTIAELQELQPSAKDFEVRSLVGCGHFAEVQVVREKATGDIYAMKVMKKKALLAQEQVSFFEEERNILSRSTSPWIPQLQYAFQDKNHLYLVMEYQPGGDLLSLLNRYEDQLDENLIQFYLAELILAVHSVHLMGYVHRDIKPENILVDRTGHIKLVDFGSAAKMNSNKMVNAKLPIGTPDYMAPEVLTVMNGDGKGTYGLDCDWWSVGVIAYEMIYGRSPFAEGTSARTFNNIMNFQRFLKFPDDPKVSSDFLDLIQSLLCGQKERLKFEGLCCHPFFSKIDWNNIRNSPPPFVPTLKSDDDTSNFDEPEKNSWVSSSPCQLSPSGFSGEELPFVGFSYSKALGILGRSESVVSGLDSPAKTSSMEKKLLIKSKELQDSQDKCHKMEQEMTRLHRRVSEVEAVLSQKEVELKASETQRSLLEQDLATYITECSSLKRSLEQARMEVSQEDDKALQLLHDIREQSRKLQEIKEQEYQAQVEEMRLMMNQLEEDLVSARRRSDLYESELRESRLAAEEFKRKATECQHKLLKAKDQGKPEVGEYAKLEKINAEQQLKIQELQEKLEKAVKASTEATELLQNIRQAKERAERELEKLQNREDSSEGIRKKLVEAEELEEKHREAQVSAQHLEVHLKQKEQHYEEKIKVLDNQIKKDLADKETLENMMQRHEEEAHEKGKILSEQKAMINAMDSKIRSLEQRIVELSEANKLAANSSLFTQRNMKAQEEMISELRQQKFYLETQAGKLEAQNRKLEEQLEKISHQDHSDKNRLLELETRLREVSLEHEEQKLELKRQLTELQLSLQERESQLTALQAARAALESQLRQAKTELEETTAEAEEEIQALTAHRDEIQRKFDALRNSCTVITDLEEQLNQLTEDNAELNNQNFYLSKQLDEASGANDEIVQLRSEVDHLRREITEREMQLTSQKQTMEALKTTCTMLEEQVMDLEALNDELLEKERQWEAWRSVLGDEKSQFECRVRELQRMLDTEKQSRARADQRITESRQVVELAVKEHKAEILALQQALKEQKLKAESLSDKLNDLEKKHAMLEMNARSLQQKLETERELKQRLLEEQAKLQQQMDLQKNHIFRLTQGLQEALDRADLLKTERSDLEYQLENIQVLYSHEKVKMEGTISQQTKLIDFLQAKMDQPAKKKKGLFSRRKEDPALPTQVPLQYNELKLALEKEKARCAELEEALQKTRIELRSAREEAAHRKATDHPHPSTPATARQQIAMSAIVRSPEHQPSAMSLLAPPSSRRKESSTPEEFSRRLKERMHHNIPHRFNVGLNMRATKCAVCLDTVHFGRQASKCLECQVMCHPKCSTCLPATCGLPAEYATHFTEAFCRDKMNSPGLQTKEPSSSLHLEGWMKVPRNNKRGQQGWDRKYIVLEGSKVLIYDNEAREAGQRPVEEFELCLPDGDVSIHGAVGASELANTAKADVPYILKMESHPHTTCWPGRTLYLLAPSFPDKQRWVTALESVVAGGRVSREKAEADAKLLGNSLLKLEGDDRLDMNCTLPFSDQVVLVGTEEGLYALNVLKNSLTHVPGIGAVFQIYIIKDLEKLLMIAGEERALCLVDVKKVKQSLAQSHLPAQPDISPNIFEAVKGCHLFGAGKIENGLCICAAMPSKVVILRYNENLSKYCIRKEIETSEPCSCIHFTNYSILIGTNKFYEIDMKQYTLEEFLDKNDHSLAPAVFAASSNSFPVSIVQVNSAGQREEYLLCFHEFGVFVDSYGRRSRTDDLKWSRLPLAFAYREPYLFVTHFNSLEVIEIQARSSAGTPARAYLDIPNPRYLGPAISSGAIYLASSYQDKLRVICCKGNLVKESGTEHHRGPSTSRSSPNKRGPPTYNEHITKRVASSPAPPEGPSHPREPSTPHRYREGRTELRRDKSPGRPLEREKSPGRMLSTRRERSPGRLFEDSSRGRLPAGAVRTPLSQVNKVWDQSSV

KinomeScan kinase panel [6] = target: T6, KinomeScan kinase panel (Homo sapiens, UniProt O43293); conditions: DAPK3, 10 µM; read-out: score (%)
T6 construct: purchased DiscoveRx (KinomeScan)
T6 sequence (O43293 whole entry): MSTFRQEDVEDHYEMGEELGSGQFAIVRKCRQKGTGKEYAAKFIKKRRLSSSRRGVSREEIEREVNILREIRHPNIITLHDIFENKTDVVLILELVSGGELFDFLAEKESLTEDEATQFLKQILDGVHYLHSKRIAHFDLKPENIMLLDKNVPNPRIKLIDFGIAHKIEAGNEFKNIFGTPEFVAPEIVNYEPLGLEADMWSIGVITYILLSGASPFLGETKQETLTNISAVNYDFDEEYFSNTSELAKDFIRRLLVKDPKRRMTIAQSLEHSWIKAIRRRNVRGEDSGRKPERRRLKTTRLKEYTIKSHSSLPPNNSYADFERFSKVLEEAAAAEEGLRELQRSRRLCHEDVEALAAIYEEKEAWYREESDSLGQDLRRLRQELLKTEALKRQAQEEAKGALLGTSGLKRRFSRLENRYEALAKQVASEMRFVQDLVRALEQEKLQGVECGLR

KinomeScan kinase panel [7] = target: T7, KinomeScan kinase panel (Homo sapiens, UniProt O15111); conditions: IKK-alpha, 10 µM; read-out: score (%)
T7 construct: purchased DiscoveRx (KinomeScan)
T7 sequence (O15111 1-745): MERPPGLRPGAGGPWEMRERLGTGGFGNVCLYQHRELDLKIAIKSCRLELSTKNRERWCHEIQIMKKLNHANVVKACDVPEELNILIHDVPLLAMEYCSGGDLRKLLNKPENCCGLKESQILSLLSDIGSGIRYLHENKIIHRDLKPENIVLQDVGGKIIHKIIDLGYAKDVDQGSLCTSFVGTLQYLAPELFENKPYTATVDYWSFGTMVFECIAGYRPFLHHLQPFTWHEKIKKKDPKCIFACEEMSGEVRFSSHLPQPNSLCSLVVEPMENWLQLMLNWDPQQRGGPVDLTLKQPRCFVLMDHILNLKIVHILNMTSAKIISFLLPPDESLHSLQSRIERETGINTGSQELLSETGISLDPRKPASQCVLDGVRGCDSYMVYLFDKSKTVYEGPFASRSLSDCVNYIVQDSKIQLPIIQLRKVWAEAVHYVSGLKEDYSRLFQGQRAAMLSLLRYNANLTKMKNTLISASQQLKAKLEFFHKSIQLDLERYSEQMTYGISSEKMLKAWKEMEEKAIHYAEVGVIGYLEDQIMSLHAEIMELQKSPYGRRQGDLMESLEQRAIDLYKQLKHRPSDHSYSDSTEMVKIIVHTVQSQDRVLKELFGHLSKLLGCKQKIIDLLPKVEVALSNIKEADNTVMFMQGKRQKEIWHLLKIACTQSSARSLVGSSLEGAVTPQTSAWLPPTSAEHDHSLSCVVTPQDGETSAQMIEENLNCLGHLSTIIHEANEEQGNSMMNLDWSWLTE

T1 sequence (P08581 25-1390): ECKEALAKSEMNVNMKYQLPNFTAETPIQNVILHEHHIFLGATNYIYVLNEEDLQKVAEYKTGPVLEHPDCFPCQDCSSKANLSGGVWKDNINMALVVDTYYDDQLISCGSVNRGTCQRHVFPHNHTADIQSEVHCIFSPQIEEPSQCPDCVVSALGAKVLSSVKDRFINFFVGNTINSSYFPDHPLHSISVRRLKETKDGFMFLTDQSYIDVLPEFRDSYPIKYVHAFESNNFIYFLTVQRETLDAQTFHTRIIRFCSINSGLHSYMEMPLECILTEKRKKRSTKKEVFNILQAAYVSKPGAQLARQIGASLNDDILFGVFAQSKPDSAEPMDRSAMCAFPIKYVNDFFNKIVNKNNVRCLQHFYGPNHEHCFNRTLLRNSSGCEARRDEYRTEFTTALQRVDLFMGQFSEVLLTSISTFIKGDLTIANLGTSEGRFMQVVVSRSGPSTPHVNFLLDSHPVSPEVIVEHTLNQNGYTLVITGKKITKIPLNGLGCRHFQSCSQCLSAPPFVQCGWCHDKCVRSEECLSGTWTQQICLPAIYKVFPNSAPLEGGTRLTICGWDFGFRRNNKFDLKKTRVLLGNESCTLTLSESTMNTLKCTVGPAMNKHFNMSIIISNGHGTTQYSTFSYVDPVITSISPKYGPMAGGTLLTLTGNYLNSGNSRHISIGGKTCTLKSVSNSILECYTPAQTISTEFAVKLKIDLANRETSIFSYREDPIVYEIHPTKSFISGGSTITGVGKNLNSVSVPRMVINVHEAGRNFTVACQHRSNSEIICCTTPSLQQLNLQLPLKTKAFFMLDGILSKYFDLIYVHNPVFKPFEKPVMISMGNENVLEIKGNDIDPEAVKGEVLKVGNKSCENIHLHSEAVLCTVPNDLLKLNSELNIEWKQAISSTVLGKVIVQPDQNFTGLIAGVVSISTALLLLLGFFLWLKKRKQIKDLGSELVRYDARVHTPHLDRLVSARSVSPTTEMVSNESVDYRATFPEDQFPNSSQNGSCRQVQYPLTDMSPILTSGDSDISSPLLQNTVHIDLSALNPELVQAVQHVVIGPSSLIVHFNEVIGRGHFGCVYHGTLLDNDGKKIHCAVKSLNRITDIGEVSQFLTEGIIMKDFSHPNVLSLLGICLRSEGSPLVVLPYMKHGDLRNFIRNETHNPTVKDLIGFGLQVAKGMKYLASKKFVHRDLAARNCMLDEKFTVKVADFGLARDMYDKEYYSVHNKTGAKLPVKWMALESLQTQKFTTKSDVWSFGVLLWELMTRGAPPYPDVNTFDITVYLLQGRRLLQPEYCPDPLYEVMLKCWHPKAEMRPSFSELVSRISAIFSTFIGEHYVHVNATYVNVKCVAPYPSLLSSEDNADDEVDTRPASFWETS

CCN1CCN(Cc2ccc(NC(=O)c3ccc(C)c(NC(=O)c4cncc(-c5cccs5)c4)c3)cc2C(F)(F)F)CC1 [ALW-II-41-27]
score (%) (KinomeScan kinase panel [1]): nb (Hits values higher than 30% were considered negative (no binding: nb))
score (%) (KinomeScan kinase panel [2]): 8.6%
remaining binding at 10 µM (KinomeScan kinase panel [3]; PRKD2, 10 µM): > 30%
remaining binding at 10 µM (KinomeScan kinase panel [4]): > 30%
score (%) (KinomeScan kinase panel [5]): 14%
remaining binding at 10 µM (KinomeScan kinase panel [6]): > 30%
remaining binding at 10 µM (KinomeScan kinase panel [7]): 3.3%

CCN1CCN(Cc2ccc(NC(=O)c3ccc(C)c(/C=C/c4cnc5[nH]ccc5c4Cl)c3)cc2C(F)(F)F)CC1 [HG-6-63-01, (E)-3-(2-(4-chloro-1H-pyrrolo[2,3-b]pyridin-5-yl)vinyl)-N-(4-((4-ethylpiperazin-1-yl)methyl)-3-(trifluoromethyl)phenyl)-4-methylbenzamide]
score (%) (KinomeScan kinase panel [1]): nb (Hits values higher than 30% were considered negative (no binding: nb))
score (%) (KinomeScan kinase panel [2]): 21%
remaining binding at 10 µM (KinomeScan kinase panel [3]; PRKD2, 10 µM): 32%
remaining binding at 10 µM (KinomeScan kinase panel [4]): > 30%
score (%) (KinomeScan kinase panel [5]): 0.2%
remaining binding at 10 µM (KinomeScan kinase panel [6]): > 30%
remaining binding at 10 µM (KinomeScan kinase panel [7]): 0.75%

CCN1CCN(Cc2ccc(NC(=O)c3ccc(C)c(C#Cc4cccnc4)c3)cc2C(F)(F)F)CC1 [XMD15-44]
score (%) (KinomeScan kinase panel [1]): nb (Hits values higher than 30% were considered negative (no binding: nb))
score (%) (KinomeScan kinase panel [2]): nb (Hits values higher than 30% were considered negative (no binding: nb))
remaining binding at 10 µM (KinomeScan kinase panel [3]; kinase PRKD2, 10 µM): 56%
remaining binding at 10 µM (KinomeScan kinase panel [4]): 75%
score (%) (KinomeScan kinase panel [5]): 0%
remaining binding at 10 µM (KinomeScan kinase panel [6]): > 30%
remaining binding at 10 µM (KinomeScan kinase panel [7]): 0%
